Experimental data from PubChem BioAssay (NCI).
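Assay format: 96-well plates, 48-hour exposure. The concentration for full growth arrest is given as TGI.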

Key:
Test in all cases: NCI tumour cell line growth inhibition, 48 h
786-0 renal = system: 786-0 renal
A498 renal = system: A498 renal
A549 NSCLC = system: A549 NSCLC
ACHN renal = system: ACHN renal
CCRF-CEM leukemia = system: CCRF-CEM leukemia
COLO 205 colon = system: COLO 205 colon
DLD-1 colon = system: DLD-1 colon
DMS 114 small cell lung = system: DMS 114 small cell lung
DMS 273 small cell lung = system: DMS 273 small cell lung
EKVX NSCLC = system: EKVX NSCLC
HCC-2998 colon = system: HCC-2998 colon
HCT-116 colon = system: HCT-116 colon
HCT-15 colon = system: HCT-15 colon
HL-60(TB) leukemia = system: HL-60(TB) leukemia
HOP-18 NSCLC = system: HOP-18 NSCLC
HOP-62 NSCLC = system: HOP-62 NSCLC
HT29 colon = system: HT29 colon
IGROV1 ovarian = system: IGROV1 ovarian
K-562 leukemia = system: K-562 leukemia
KM12 colon = system: KM12 colon
KM20L2 colon = system: KM20L2 colon
LOX IMVI melanoma = system: LOX IMVI melanoma
LXFL 529 NSCLC = system: LXFL 529 NSCLC
M14 melanoma = system: M14 melanoma
M19-MEL melanoma = system: M19-MEL melanoma
MALME-3M melanoma = system: MALME-3M melanoma
NCI-H226 lung = system: NCI-H226 lung
NCI-H23 lung = system: NCI-H23 lung
NCI-H460 lung = system: NCI-H460 lung
NCI-H522 lung = system: NCI-H522 lung
OVCAR-3 ovarian = system: OVCAR-3 ovarian
OVCAR-4 ovarian = system: OVCAR-4 ovarian
OVCAR-5 ovarian = system: OVCAR-5 ovarian
OVCAR-8 ovarian = system: OVCAR-8 ovarian
RXF 393 renal = system: RXF 393 renal
RXF-631 renal = system: RXF-631 renal
SF-268 CNS = system: SF-268 CNS
SF-295 CNS = system: SF-295 CNS
SF-539 CNS = system: SF-539 CNS
SK-MEL-2 melanoma = system: SK-MEL-2 melanoma
SK-MEL-28 melanoma = system: SK-MEL-28 melanoma
SK-MEL-5 melanoma = system: SK-MEL-5 melanoma
SK-OV-3 ovarian = system: SK-OV-3 ovarian
SN12C renal = system: SN12C renal
SNB-19 CNS = system: SNB-19 CNS
SNB-75 CNS = system: SNB-75 CNS
SNB-78 CNS = system: SNB-78 CNS
SW-620 colon = system: SW-620 colon
TK-10 renal = system: TK-10 renal
U251 CNS = system: U251 CNS
UACC-257 melanoma = system: UACC-257 melanoma
UACC-62 melanoma = system: UACC-62 melanoma
UO-31 renal = system: UO-31 renal
XF 498 CNS = system: XF 498 CNS
CAKI-1 renal = system: CAKI-1 renal
HOP-92 NSCLC = system: HOP-92 NSCLC
MOLT-4 leukemia = system: MOLT-4 leukemia
RPMI-8226 leukemia = system: RPMI-8226 leukemia

Measured: TGI

CC(=O)OCCOCNC(=S)N/N=C/c1ccc([N+](=O)[O-])o1
31 µM: M19-MEL melanoma
43.1 µM: DMS 114 small cell lung
39.2 µM: HL-60(TB) leukemia
42.9 µM: COLO 205 colon
not listed: CAKI-1 renal | HOP-92 NSCLC | MOLT-4 leukemia | RPMI-8226 leukemia
> 100 µM: all other assays above

CN(C)CC1CCCC/C1=N/O (stereo not given)
not listed: SNB-19 CNS | XF 498 CNS
> 100 µM: all other assays above
